Data from publication PMC8469034, “Catalytic Asymmetry in Homodimeric H^+-Pumping Membrane Pyrophosphatase Demonstrated by Non-Hydrolyzable Pyrophosphate Analogs” (International Journal of Molecular Sciences, 2021).
Where two headings read alike, the source gives them in different places.

Legend:
[1] = target: T1, Dh-mPPase (Desulfitobacterium hafniense, UniProt B8FXV7); test: continuous Pi analyzer assay of PPi hydrolysis, inverted membrane vesicles, global fit; type: biochemical
T1 construct: gene hppA; full-length membrane protein expressed in E. coli C41(DE3)ril, assayed in inverted membrane vesicles; homodimer; K+-dependent H+-transporting, EC 7.1.3.1
T1 sequence (B8FXV7 1-671): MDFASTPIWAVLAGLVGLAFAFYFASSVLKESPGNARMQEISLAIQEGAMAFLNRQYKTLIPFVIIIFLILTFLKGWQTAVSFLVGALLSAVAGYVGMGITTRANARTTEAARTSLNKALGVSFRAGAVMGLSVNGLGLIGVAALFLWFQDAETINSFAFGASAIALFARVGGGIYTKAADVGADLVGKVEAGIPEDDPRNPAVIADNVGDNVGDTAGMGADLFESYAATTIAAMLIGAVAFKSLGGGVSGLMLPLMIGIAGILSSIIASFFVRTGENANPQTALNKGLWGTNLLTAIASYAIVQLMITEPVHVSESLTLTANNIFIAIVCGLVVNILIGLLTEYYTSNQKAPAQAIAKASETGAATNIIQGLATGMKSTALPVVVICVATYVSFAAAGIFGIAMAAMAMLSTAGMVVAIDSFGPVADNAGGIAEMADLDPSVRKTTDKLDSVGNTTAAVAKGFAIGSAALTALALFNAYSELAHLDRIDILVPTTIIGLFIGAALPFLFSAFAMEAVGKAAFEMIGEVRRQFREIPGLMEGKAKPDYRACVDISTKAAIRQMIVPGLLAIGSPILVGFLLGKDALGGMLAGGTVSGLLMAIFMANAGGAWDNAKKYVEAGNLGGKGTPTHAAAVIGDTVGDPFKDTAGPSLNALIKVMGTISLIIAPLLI
Description: continuous Pi analyzer assay of PPi hydrolysis, inverted membrane vesicles, global fit on Dh-mPPase

[2] = substrate: O=P(O)(O)OP(=O)(O)O; test: cells, lysate or membranes; type: biochemical, Desulfitobacterium hafniense; details: varied free Mg2+ (extrapolated to Mg2+ saturation), 50 mM K+, 0.1 M MOPS-KOH pH 7.2, 25 °C, no inhibitor, first site of dimer, macroscopic, substrate counted as Mg2PPi

NC(P(=O)(O)O)P(=O)(O)O [AMDP]
Ki ([1]; read-out: Value / AMDP): 0.4 ± 0.02 µM

O=P(O)(O)NP(=O)(O)O [IDP]
Ki ([1]; read-out: Value / IDP): 4.2 ± 0.2 µM

CC(O)(P(=O)(O)O)P(=O)(O)O [HEDP]
Ki ([1]; read-out: Value / HEDP): 27 ± 1 µM

B1: Dh-mPPase (Desulfitobacterium hafniense DCB-2) (protein)
chain: T1 sequence (B8FXV7 1-671)
notes: full-length membrane protein expressed in E. coli C41(DE3)ril, assayed in inverted membrane vesicles; homodimer; K+-dependent H+-transporting, EC 7.1.3.1
Km [2]: 2.2 ± 0.1 µM
